Assay results as given in patent US8410109B2, “Pharmaceutical compositions for the prevention and treatment of complex diseases and their delivery by insertable medical devices” (Resverlogix Corp., priority 2005, dated 2013).
Counter-ions that a name gives are not always drawn.

What was measured:
VCAM-1 = VCAM-1 ELISA on lysates of TNF-α stimulated HUVECs; format: cell-based; conditions: Homo sapiens, HUVEC, approx. 16 hours
Protocol: (§1) Compounds were dissolved in DMSO, aliquoted, and stored at −20° C. Cultured human vascular endothelial cells (HUVECs) were seeded in 96-well plates in complete EGM-2 media (˜100 μL/well); cells were plated at ˜2-3×10^5/mL, and were from passage 8 to 12. Cells were incubated overnight. On the following day cells are stimulated with TNF-α (˜1 ng/mL) in the presence or absence of compounds dissolved in DMSO. Triplicate wells were used for each test. To establish a dose curve and an IC50, multiple concentrations in 2- to 5-fold increments were used. Cells were exposed to TNF-α and compounds for approximately 16 hours. The next day, cells were visually examined via light microscopy to score for visual signs of toxicity. Cell culture media was analyzed using an MCP-1 ELISA. Cells were refed (−100 μL/well) with 20% CellTiter 96. Aqueous One Cell Proliferation Solution (Promega), 80% EGM-2 medium. Media optical density (at 490 nm) was determined after 1 hour. Plates were aspirated and cell lysates were prepared and these lysates were tested using a VCAM-1 ELISA.
(§2) In Table 2, a positive result (+) was defined as at least 50% inhibition of the protein levels MCP-1 or VCAM-1, as determined by the ELISA.

MCP-1 = MCP-1 ELISA on culture media of TNF-α stimulated HUVECs; format: cell-based; conditions: Homo sapiens, HUVEC, approx. 16 hours
Protocol: as §1, §2

[1] = system: Human coronary artery smooth muscle cells (CASMCs); assay: Smooth muscle cell proliferation protocol; format: cell-based; conditions: 72 hours, read-out: % Inhibition of SMC Proliferation
Protocol: Compounds were dissolved in DMSO, aliquoted, and stored at −20° C. Human coronary artery smooth muscle cells (CASMCs) were plated in 96-well plates and were grown in SmBM-2 media. After 1-2 hours, media was aspirated and replaced with serum-free ME/F12 media, except the controls. Cells were incubated for a further 48 hours. Compounds were diluted in DME/F12 containing 10% FBS. Media was aspirated from the plates and compounds in DME/F12 containing 10% FBS. Six wells were used per condition and duplicate plates were used. Cells were incubated for a further 72 hours. Media was aspirated from one set of plates; those cells were refed (˜100 μL/well) with 20% CellTiter 96 Aqueous One Cell Proliferation Solution (Promega), 80% EGM-2 medium. Media optical density (at 490 nm) was determined after 3-4 hours. In the second set of plates, serum-free DME/F12 media (20 μL) was added to each well. Part of the supernatant (50 μL) was removed and placed in an ELISA plate and was stored temporarily at 4° C. The remaining media and cells in the second set of plates were freeze-thawed for four cycles. The lysates and supernatants were mixed and centrifuged. Part of the supernatant (50 μL) was removed and placed in an ELISA plate. The Promega Cytotox assay was performed on the ELISA plates. The ratio of supernatant OD to supernatant+cell lysate OD was determined.
In Table 2, a positive result (+) was defined as at least 40% inhibition of the proliferation of SMC, as determined by the assay.

Structure (SMILES) | melting point [°C] | inhibition at 50 µM (VCAM-1) [%] | inhibition at 50 µM (MCP-1) [%] | inhibition at 50 µM [1] [%] | inhibition at 10 µM (VCAM-1; 10 uM) [%] | inhibition at 10 µM (MCP-1; 10 uM) [%] | inhibition at 10 µM ([1]; 10 uM) [%]
CN(C)Cc1ccc2c(=O)cc(-c3ccc(O)cc3)oc2n1 (as salt: hydrochloride) [EXAMPLE 26, 7-((dimethylamino)methyl-2-(4-hydroxyphenyl)-4H-pyrano[2,3-b]pyridin-4-one dihydrochloride] | 205 |  |  |  |  |  | 
CN(C)CCOc1ccc(-c2cc(=O)c3cccnc3o2)cc1 (as salt: hydrochloride) [EXAMPLE 27, 2-(4-(2-(dimethylamino)ethoxy)phenyl)-4H-pyrano[2,3-b]pyridin-4-one dihydrochloride] | 236 to 238 |  |  |  |  |  | 
O=c1cc(-c2ccncc2)oc2ncccc12 (as salt: hydrochloride) [EXAMPLE 30, 2-(pyridin-4-yl)-4H-pyrano[2,3-b]pyridin-4-one hydrochloride] | 248 to 250 |  |  |  |  |  | 
Cc1cc(-c2cc(=O)c3cccnc3o2)cc(C)c1OCCN1CCOCC1 (as salt: hydrochloride) [EXAMPLE 31, 2-(3,5-dimethyl-4-(2-morpholinoethoxy)phenyl)-4H-pyrano[2,3-b]pyridin-4-one hydrochloride] | 276 to 278 |  |  |  |  |  | 
Cc1cc(-c2cc(=O)c3cc(CN4CCCC4)cnc3o2)cc(C)c1O (as salt: hydrochloride) [EXAMPLE 33, 2-(4-hydroxy-3,5-dimethylphenyl)-6-(pyrrolidin-1-ylmethyl)-4H-pyrano[2,3-b]pyridin-4-one dihydrochloride] | 337 to 338 |  |  |  |  |  | 
COc1cc(OC)c2c(=O)cc(-c3ccncc3)oc2c1 (as salt: hydrochloride) [EXAMPLE 34, 5,7-dimethoxy-2-(pyridin-4-yl)-4H-chromen-4-one hydrochloride] | 234 to 235 |  |  |  |  |  | 
O=c1cc(-c2ccccc2)oc2ncc(CN3CCCC3)cc12 (as salt: hydrochloride) [EXAMPLE 35, 2-phenyl-6-(pyrrolidin-1-ylmethyl)-4H-pyrano[2,3-b]pyridin-4-one hydrochloride] | 294 to 296 |  |  |  |  |  | 
O=c1cc(-c2ccc(F)cc2)oc2ncc(CN3CCCC3)cc12 (as salt: hydrochloride) [EXAMPLE 37, 2-(4-fluorophenyl)-6-(pyrrolidin-1-ylmethyl)-4H-pyrano[2,3-b]pyridin-4-one hydrochloride] | 265 to 268 |  |  |  |  |  | 
Nc1ccc(-c2cc(=O)c3cccnc3o2)cc1 (as salt: hydrochloride) [EXAMPLE 38, 2-(4-aminophenyl)-4H-pyrano[2,3-b]pyridin-4-one hydrochloride] | 254 to 255 |  |  |  |  |  | 
Cc1cc(-c2cc3ncccc3c(=O)[nH]2)cc(C)c1O (as salt: hydrochloride) [EXAMPLE 40, 7-(4-hydroxy-3,5-dimethylphenyl)-1,6-naphthyridin-5(6H)-one hydrochloride] | > 350 |  |  |  |  |  | 
COc1cc(O)nc2cc(-c3cc(C)c(O)c(C)c3)[nH]c(=O)c12 (as salt: hydrochloride) [EXAMPLE 41, 2-hydroxy-7-(4-hydroxy-3,5-dimethylphenyl)-4-methoxy-1,6-naphthyridin-5(6H)-one dihydrochloride] | > 330 |  |  |  |  |  | 
CNc1nc(-c2cc(C)c(O)c(C)c2)cc2ccc(CN3CCN(C)CC3)cc12 (as salt: hydrochloride) [EXAMPLE 43, 2,6-dimethyl-4-(1-(methylamino)-7-((4-methylpiperazin-1-yl)methyl)isoquinolin-3-yl)phenol trihydrochloride] | 264 to 266 |  |  |  |  |  | 
O=c1cc(-c2ccc(O)cc2)oc2cnccc12 [EXAMPLE 3, 2-(4-Hydroxyphenyl)-pyrano[2,3-c]pyridin-one] | 294 to 296 | < 50 | < 50 | ≥ 40 |  |  | 
O=c1cc(-c2ccc(O)c(F)c2)oc2ncccc12 [EXAMPLE 4, 2-(3-Fluoro-4-hydroxyphenyl)pyrano[2,3-b]pyridine-4-one] | 267 to 268 | ≥ 50 | < 50 | < 40 |  |  | 
Cc1cc(-c2cc(=O)c3cccnc3o2)ccc1O [EXAMPLE 5, 2-(4-Hydroxy-3-methylphenyl)-4H-pyrano[2,3-b]pyridine-4-one] | 300 to 302 |  |  |  | < 50 | < 50 | < 40
O=c1cc(-c2ccc(O)cc2)oc2ccncc12 [EXAMPLE 6, 2-(4-Hydroxyphenyl)-4H-pyrano[3,2-c]pyridin-4-one] | 306 to 308 | ≥ 50 | < 50 | ≥ 40 |  |  | 
O=c1cc(-c2ccc(O)c(Cl)c2)oc2ncccc12 [EXAMPLE 7, 2-(3-Chloro-4-hydroxyphenyl)-4H-pyrano[2,3-b]pyridine-4-one] | 259 to 262 | ≥ 50 | ≥ 50 | ≥ 40 |  |  | 
COc1cc(-c2cc(=O)c3cccnc3o2)ccc1O [EXAMPLE 8, 2-(4-Hydroxy-3-methoxyphenyl)-4H-pyrano[2,3-b]pyridine-4-one] | 253 to 255 | ≥ 50 | < 50 | < 40 |  |  | 
COc1ccc(-c2cc(=O)c3cccnc3o2)cc1 [EXAMPLE 9, 2-(4-Methoxyphenyl)-4H-pyrano[2,3-b]pyridine-4-one] | 269 to 270 | < 50 | < 50 | ≥ 40 |  |  | 
O=c1cc(-c2ccc(OCCO)cc2)oc2ncccc12 [EXAMPLE 10, 2-(4-(2-Hydroxyethoxy)phenyl)-4H-pyrano[2,3-b]pyridine-4-one] | 157 to 159 | < 50 | < 50 | ≥ 40 |  |  | 
O=c1cc(-c2ccc(O)nc2)oc2ccccc12 [EXAMPLE 13, 2-(6-Hydroxypyridin-3-yl)-chromen-4-one] | 296 to 297 | ≥ 50 | < 50 | ≥ 40 |  |  | 
Oc1ccc(-c2cc3ccccc3cn2)cc1 [EXAMPLE 15, 4-Isoquinolin-3-yl-phenol] | 218 to 219 | ≥ 50 | < 50 | < 40 |  |  | 
Cn1c(-c2ccc(O)c(F)c2)cc2ncccc2c1=O [EXAMPLE 16, 7-(3-Fluoro-4-hydroxyphenyl)-6-methyl-1,6-naphthyridin-5(6H)-one] | 182 to 184 | < 50 | < 50 | < 40 |  |  | 
CNc1nc(-c2ccc(O)c(F)c2)cc2c(OC)cccc12 [EXAMPLE 17, 2-Fluoro-4-(5-methoxy-1-(methylamino)isoquinolin-3-yl)phenol] | 185 to 187 | ≥ 50 | ≥ 50 | < 40 |  |  | 
COc1cccc2c(=O)[nH]c(-c3ccc(O)c(F)c3)cc12 [EXAMPLE 18, 3-(3-Fluoro-4-hydroxyphenyl)-5-methoxyisoquinolin-1(2H)-one] | 289 to 291 | ≥ 50 | ≥ 50 | ≥ 40 |  |  | 
COc1cc(OC)c2c(=O)[nH]c(-c3ccc(O)cc3)cc2c1 [EXAMPLE 19, 3-(4-Hydroxyphenyl)-6,8-dimethoxyisoquinolin-1(2H)-one] | 245 to 247 | < 50 | ≥ 50 | ≥ 40 |  |  | 
O=c1[nH]c(-c2ccc(O)cc2)cc2ccccc12 [EXAMPLE 21, 3-(4-Hydroxyphenyl)-2H-isoquinolin-1-one] | 239 to 241 | ≥ 50 | ≥ 50 | ≥ 40 |  |  | 
O=c1cc(-c2ccccc2)oc2ncccc12 [EXAMPLE 22, 2-Phenyl-4H-pyrano[2,3-b]pyridin-4-one] | 103 to 105 | < 50 | < 50 | ≥ 40 |  |  | 
O=c1cc(-c2ccncc2)oc2cccc(CO)c12 [EXAMPLE 51, 5-(hydroxymethyl)-2-(pyridin-4-yl)-4H-chromen-4-one] |  | < 50 | < 50 | < 40 |  |  | 
